Like-named read-outs stand apart in the source and are kept apart here.
Tests used:
[1] = MTT cytotoxicity test in AZ-AHR cells; format: cell-based, human; details: human; 24 h incubation, six passages; read-out: AZ-AHR viability - MTT IC50
Description: (§1) A stably transfected gene reporter cell line AZ-AHR, derived from human hepatoma HepG2 cells transfected with a construct containing several AhR binding sites upstream of a luciferase reporter gene, was used for assessment of AhR transcriptional activity. A stably transfected gene reporter cell line AZ-GR, derived from human cervix carcinoma HeLa cells transfected with a construct containing several GR response elements upstream of a luciferase reporter gene, was used for assessment of GR transcriptional activity. Cells were incubated for 24 h with tested compounds and/or vehicle (DMSO; 0.1% v/v), in the presence or absence of TCDD (5 nM; AZ-AHR cells) or DEX (100 nM; AZ-GR cells). After the treatments, cells were lysed and luciferase activity was measured. In parallel, cell viability was determined by conventional MTT test.
(§2) Prior to the agonist or antagonist experiments, the cytotoxicity of tested compounds was assessed using the conventional MTT assay. […] The vehicle was DMSO (0.1% v/v). After the treatment, a MTT test was performed.

[2] = molecular target: T1, aryl hydrocarbon receptor AhR (Homo sapiens, UniProt P35869); test: AhR gene reporter assay in AZ-AHR cells, agonist mode; format: cell-based; details: for EC50: 24 h, agonist mode
T1 construct: endogenous in cells; host or cells: AZ-AHR (stably transfected reporter line derived from HepG2)
T1 sequence (P35869 11-848): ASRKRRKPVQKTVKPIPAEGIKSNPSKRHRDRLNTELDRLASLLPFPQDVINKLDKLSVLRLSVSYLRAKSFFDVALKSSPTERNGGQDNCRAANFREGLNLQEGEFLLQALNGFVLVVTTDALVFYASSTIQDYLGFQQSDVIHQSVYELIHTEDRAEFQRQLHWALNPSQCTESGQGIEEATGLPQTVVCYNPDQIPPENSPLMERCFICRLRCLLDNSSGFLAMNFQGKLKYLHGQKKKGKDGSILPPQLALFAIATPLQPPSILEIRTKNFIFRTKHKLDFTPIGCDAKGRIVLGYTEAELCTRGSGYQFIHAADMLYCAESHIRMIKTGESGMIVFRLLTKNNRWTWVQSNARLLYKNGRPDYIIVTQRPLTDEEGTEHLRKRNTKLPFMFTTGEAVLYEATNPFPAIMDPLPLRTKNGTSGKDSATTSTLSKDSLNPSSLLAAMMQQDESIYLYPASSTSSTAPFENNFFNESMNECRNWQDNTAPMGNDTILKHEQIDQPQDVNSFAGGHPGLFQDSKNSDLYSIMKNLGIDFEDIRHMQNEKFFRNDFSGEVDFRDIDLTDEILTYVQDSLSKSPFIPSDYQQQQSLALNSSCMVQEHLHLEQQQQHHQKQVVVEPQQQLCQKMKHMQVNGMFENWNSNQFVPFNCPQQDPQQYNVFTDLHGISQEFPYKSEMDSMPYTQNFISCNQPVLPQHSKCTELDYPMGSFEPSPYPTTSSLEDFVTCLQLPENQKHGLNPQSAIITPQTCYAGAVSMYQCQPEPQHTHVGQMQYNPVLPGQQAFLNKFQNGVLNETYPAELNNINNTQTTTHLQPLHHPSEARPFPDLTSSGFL
Description: as §1
Gene reporter assays were performed in two different experimental layouts. In agonist mode, cells were treated with increasing concentrations of tested compounds, and the half-maximal effective concentrations (EC50) were calculated.

[3] = system: tyrosine aminotransferase (TAT) mRNA; test: TAT mRNA in HepG2 cells (qRT-PCR); format: cell-based, human; details: HepG2, 1, 30, 50 µM, 24 h
[4] = molecular target: T2, glucocorticoid receptor (GR) (Homo sapiens, UniProt P04150); test: GR gene reporter assay in AZ-GR cells, agonist mode; format: cell-based; details: up to / at 100 µM, 24 h
T2 sequence (P04150 1-777): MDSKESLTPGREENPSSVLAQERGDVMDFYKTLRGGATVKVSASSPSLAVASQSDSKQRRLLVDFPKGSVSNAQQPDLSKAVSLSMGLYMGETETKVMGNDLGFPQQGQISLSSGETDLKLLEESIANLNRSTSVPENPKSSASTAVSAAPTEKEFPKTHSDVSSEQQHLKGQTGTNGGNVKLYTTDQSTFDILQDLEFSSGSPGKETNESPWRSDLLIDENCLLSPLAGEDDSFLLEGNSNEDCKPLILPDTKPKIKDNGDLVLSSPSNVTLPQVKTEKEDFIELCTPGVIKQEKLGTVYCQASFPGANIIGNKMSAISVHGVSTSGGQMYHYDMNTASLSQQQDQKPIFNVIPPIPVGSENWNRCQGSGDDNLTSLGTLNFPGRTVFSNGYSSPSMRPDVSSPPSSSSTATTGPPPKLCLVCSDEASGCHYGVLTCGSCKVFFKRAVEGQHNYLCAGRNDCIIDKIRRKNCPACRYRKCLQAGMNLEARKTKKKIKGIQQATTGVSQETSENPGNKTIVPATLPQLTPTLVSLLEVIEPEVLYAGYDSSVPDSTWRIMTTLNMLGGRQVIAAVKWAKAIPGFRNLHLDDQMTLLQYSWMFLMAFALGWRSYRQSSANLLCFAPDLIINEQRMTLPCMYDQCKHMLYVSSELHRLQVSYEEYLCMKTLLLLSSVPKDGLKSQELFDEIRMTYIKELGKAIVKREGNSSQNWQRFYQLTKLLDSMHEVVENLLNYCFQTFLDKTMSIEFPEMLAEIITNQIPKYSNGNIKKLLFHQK
Description: as §1
(§3) There is multiple evidence for the role of glucocorticoid receptor (GR) in regulation of AhR activity. […] Gene reporter assays were performed in agonist and antagonist mode (similarly as described in section 3.1.).

[5] = system: AZ-GR cells; test: MTT cytotoxicity test in AZ-GR cells; format: cell-based, human; details: 24 h incubation, read-out: AZ-GR viability - MTT IC50
Description: as §1, §3

[6] = system: CYP1A1 catalytic activity (7-ethoxyresorufin-O-deethylase)
[7] = molecular target: T2, glucocorticoid receptor (GR); test: GR gene reporter assay in AZ-GR cells, antagonist mode (DEX 100 nM); format: cell-based; details: 24 h; for IC50: in the presence of DEX 100 nM
Description: as §1, §3

[8] = system: AZ-AHR cells; test: MTT cytotoxicity test in AZ-AHR cells; format: cell-based, human; details: 24 h incubation, six passages; read-out: AZ-AHR viability - MTT IC50
Description: as §1, §2

Compound | IC50 at 24 h [1] [µM] | AZ-AHR gene reporter - agonist efficacy [2] | EC50 [2] [µM] | TAT mRNA induction (in words) [3] | increase of luciferase activity, agonist mode [4] | IC50 ([5]; Homo sapiens) [µM] | EROD activity (in words) [6] | inhibition of DEX-induced luciferase activity (in words) ([7]; DEX 100 nM) | IC50 [7] [µM] | IC50 [8] [µM] | AZ-AHR gene reporter - agonist efficacy ([2]; average value printed in Figure 1B, relative to TCDD) | IC50 [5] [µM]
CC(=O)N1CCN(c2ccc(OCC3COC(Cn4ccnc4)(c4ccc(Cl)cc4Cl)O3)cc2)CC1 (racemic) [rac-KET, ketoconazole] | 67.2 ± 24.8 | 15,4 ± 9,4% | 5.2 | strong, concentration-dependent induction | approximately 5 fold | > 100 | increased the EROD activity in a concentration-dependent manner | only weak inhibition | > 100 |  |  | 
CC(=O)N1CCN(c2ccc(OC[C@H]3CO[C@](Cn4ccnc4)(c4ccc(Cl)cc4Cl)O3)cc2)CC1 [(+)-KET, (2R,4S)-(+)-KET] |  |  | 3.2 | strong, concentration-dependent induction | did not induce luciferase activity |  |  |  | 29.6 ± 0.9 | 77.3 ± 23.9 | 23,5 ± 12,2% | 82.6 ± 23.7

Reference: PMC4084896 (PLoS ONE, 2014)
